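Tested at 5 concentrations; 48 h exposure; 96-well plates; endpoints linearly interpolated, else capped at highest concentration. GI50 is the concentration that inhibits growth by half.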 The source made the active and inactive calls. Rule as the data show it: active = GI50 up to about 1.1 µM and inactive = higher.
Key:
Assay in all cases: NCI anticancer screen, dose series, 48 h
[1] = tested on: CAKI-1
[2] = tested on: EKVX
[3] = tested on: CCRF-CEM
[4] = tested on: UACC-257
[5] = tested on: HOP-62
[6] = tested on: LOX IMVI
[7] = tested on: BT-549
[8] = tested on: PC-3
[9] = tested on: HCC 2998
[10] = tested on: NCI-H522
[11] = tested on: 786-0
[12] = tested on: OVCAR-4
[13] = tested on: SNB-19
[14] = tested on: SF-268
[15] = tested on: A498
[16] = tested on: SN12C
[17] = tested on: RPMI-8226
[18] = tested on: COLO 205
[19] = tested on: SNB-75
[20] = tested on: MCF7

Compound	GI50 [1]	GI50 [2]	GI50 [3]	GI50 [4]	GI50 [5]	GI50 [6]	GI50 [7]	GI50 [8]	GI50 [9]	GI50 [10]	GI50 [11]	GI50 [12]	GI50 [13]	GI50 [14]	GI50 [15]	GI50 [16]	GI50 [17]	GI50 [18]	GI50 [19]	GI50 [20]
Oc1ccc(-c2ccccc2)nn1	> 100 µM (inactive)	> 100 µM (inactive)	> 100 µM (inactive)	> 100 µM (inactive)	> 100 µM (inactive)	> 100 µM (inactive)	> 100 µM (inactive)	> 100 µM (inactive)	> 100 µM (inactive)	> 100 µM (inactive)	> 100 µM (inactive)	> 100 µM (inactive)	> 100 µM (inactive)	> 100 µM (inactive)	> 100 µM (inactive)	> 100 µM (inactive)				
Cc1cc(C)c2c(c1)CSCc1cc(C)cc(C)c1-2	26.2 µM (inactive)	24.2 µM (inactive)	23 µM (inactive)	24.8 µM (inactive)	27.6 µM (inactive)	17.3 µM (inactive)			35.2 µM (inactive)	22.5 µM (inactive)	32.5 µM (inactive)	39.2 µM (inactive)	44.8 µM (inactive)	38.7 µM (inactive)	28.1 µM (inactive)	35.2 µM (inactive)	22.9 µM (inactive)	26.5 µM (inactive)	37.3 µM (inactive)	
Cc1cc2c(cc1C)[n+]([O-])c(C(=O)/C=C/c1ccccc1Cl)c(C)[n+]2[O-]	21.1 µM (inactive)	49.2 µM (inactive)	37.2 µM (inactive)	23 µM (inactive)	24.6 µM (inactive)	31 µM (inactive)			17.1 µM (inactive)	12.7 µM (inactive)	16 µM (inactive)	50.7 µM (inactive)	43.2 µM (inactive)	27.9 µM (inactive)	36.6 µM (inactive)	33 µM (inactive)	45 µM (inactive)	20.7 µM (inactive)	19.2 µM (inactive)	
O=C(CCN1CCN(c2cccc(Cl)c2)CC1)N1CCc2c([nH]c3ccccc23)C1c1cccnc1 (stereo unspecified)	3.8 µM (inactive)	8.73 µM (inactive)	5.56 µM (inactive)	2.81 µM (inactive)	9.1 µM (inactive)	3.52 µM (inactive)			1.91 µM (inactive)	4.19 µM (inactive)	4.89 µM (inactive)	2.58 µM (inactive)	6.82 µM (inactive)		0.282 µM (active)	6.62 µM (inactive)	4.72 µM (inactive)	3.66 µM (inactive)	9.68 µM (inactive)	
COc1ccc(-c2nc(-c3cnccn3)n(C3OC(CO)C(O)C3O)n2)cc1 (stereo unspecified)		> 10 µM (inactive)	> 10 µM (inactive)	> 10 µM (inactive)		> 10 µM (inactive)	> 10 µM (inactive)	> 10 µM (inactive)	> 10 µM (inactive)	> 10 µM (inactive)	> 10 µM (inactive)	> 10 µM (inactive)	> 10 µM (inactive)	> 10 µM (inactive)		> 10 µM (inactive)			> 10 µM (inactive)	> 10 µM (inactive)
COc1cccc(NC(=O)/C(CS(=O)(=O)CCC(C(C)=O)C(C)=O)=N/NC(C)(C)C)c1	> 100 µM (inactive)	> 100 µM (inactive)	> 100 µM (inactive)	> 100 µM (inactive)	> 100 µM (inactive)	> 100 µM (inactive)			> 100 µM (inactive)	> 100 µM (inactive)	> 100 µM (inactive)	> 100 µM (inactive)	> 100 µM (inactive)	> 100 µM (inactive)	> 100 µM (inactive)	> 100 µM (inactive)	> 100 µM (inactive)	> 100 µM (inactive)	> 100 µM (inactive)	
COc1cc(-c2ccccc2)cn2c1nc1ccccc12	19.6 µM (inactive)		25.5 µM (inactive)	22.7 µM (inactive)	19.9 µM (inactive)	22.3 µM (inactive)	17.8 µM (inactive)	18.8 µM (inactive)	15.9 µM (inactive)	16.5 µM (inactive)	15.7 µM (inactive)		23.1 µM (inactive)	26.1 µM (inactive)		19.8 µM (inactive)	20.9 µM (inactive)	19.2 µM (inactive)	17.6 µM (inactive)	17.1 µM (inactive)
COc1ccc(OC)c(/C=C(/C#N)c2ccccc2)c1	35.1 µM (inactive)	30.6 µM (inactive)	17.5 µM (inactive)		40.3 µM (inactive)	16.1 µM (inactive)			> 10 µM (inactive)	14 µM (inactive)	19 µM (inactive)	15.9 µM (inactive)	52 µM (inactive)	34 µM (inactive)	20.2 µM (inactive)	32.6 µM (inactive)	13.4 µM (inactive)	20.5 µM (inactive)	10.8 µM (inactive)	

From ChEMBL document CHEMBL1201862, “PubChem BioAssay data set” (2004)
